In ChEMBL document CHEMBL3137381, “MMV Box Onchocerca lienalis screening set”:

Experiments:
Assay type in all cases: functional
Onchocerca lienalis [1] = experiment: MMV: Percent motility assay at a compound concentration of 7.8e-7 M. Activity score legend: 3: Active, 2: Moderately active; 1: Inactive, 0: Toxic; details: at 0.78 µM
Onchocerca lienalis [2] = experiment: MMV: Percent motility assay at a compound concentration of 3.1e-6 M. Activity score legend: 3: Active, 2: Moderately active; 1: Inactive, 0: Toxic; details: at 3.1 µM
Onchocerca lienalis [3] = experiment: MMV: Percent motility assay at a compound concentration of 1.9e-7 M. Activity score legend: 3: Active, 2: Moderately active; 1: Inactive, 0: Toxic; details: at 0.19 µM
Onchocerca lienalis [4] = experiment: MMV: Percent motility assay at a compound concentration of 1.25e-5 M. Activity score legend: 3: Active, 2: Moderately active; 1: Inactive, 0: Toxic; details: at 12.5 µM

Measured: Motility

COc1ccc2c(c1)C1(Nc3ccccc3-c3nc4ccccc4n31)C(=O)N2 (configuration not stated)
100%: Onchocerca lienalis [1] | Onchocerca lienalis [2] | Onchocerca lienalis [3] | Onchocerca lienalis [4]

COc1cccc(Cn2c(Oc3ccccc3)nc3c2c(=O)n(C)c(=O)n3C)c1
100%: Onchocerca lienalis [1] | Onchocerca lienalis [2] | Onchocerca lienalis [3] | Onchocerca lienalis [4]

CCOc1c(Cl)cc(CNCC(O)c2ccccc2)cc1OC (configuration not stated)
100%: Onchocerca lienalis [1] | Onchocerca lienalis [2] | Onchocerca lienalis [3] | Onchocerca lienalis [4]

O=C(Nc1ccc(Br)cc1)Nc1cccc(Cl)c1
100%: Onchocerca lienalis [1] | Onchocerca lienalis [2] | Onchocerca lienalis [3] | Onchocerca lienalis [4]

CN(C)CCNc1cc(-c2ccccc2)nc2ccccc12
100%: Onchocerca lienalis [1] | Onchocerca lienalis [2] | Onchocerca lienalis [3] | Onchocerca lienalis [4]

COc1ccc2nc(C)cc(Nc3ccc(Cl)cc3)c2c1
0%: Onchocerca lienalis [4]
100%: Onchocerca lienalis [1] | Onchocerca lienalis [2] | Onchocerca lienalis [3]

COc1ccc2nc(C)cc(Nc3cccc(O)c3)c2c1.Cl
100%: Onchocerca lienalis [1] | Onchocerca lienalis [2] | Onchocerca lienalis [3] | Onchocerca lienalis [4]

Cc1sc2ncnc(Sc3nc4ccccc4[nH]3)c2c1C
100%: Onchocerca lienalis [1] | Onchocerca lienalis [2] | Onchocerca lienalis [3] | Onchocerca lienalis [4]

O=C(Nc1ccc(CN2CCOCC2)cc1)c1ccc(-c2cc(Cl)ccc2Cl)o1
100%: Onchocerca lienalis [1] | Onchocerca lienalis [2] | Onchocerca lienalis [3] | Onchocerca lienalis [4]

COCCn1c(C)nc2ccccc2c1=O
100%: Onchocerca lienalis [1] | Onchocerca lienalis [2] | Onchocerca lienalis [3] | Onchocerca lienalis [4]

CCOc1ccccc1NC(=O)CN1CCN(C(=O)c2ccco2)CC1
100%: Onchocerca lienalis [1] | Onchocerca lienalis [2] | Onchocerca lienalis [3] | Onchocerca lienalis [4]

COc1ccc(-c2nonc2NC(=O)c2cccc(Cl)c2)cc1OC
100%: Onchocerca lienalis [1] | Onchocerca lienalis [2] | Onchocerca lienalis [3] | Onchocerca lienalis [4]

CCOc1cc2c(cc1OCC)C(c1cc(C)c(O)c(C)c1)NCC2.Cl (configuration not stated)
100%: Onchocerca lienalis [1] | Onchocerca lienalis [2] | Onchocerca lienalis [3] | Onchocerca lienalis [4]

CC(C)c1ccc(CNCC(O)c2ccccc2)cc1.Cl (configuration not stated)
100%: Onchocerca lienalis [1] | Onchocerca lienalis [2] | Onchocerca lienalis [3] | Onchocerca lienalis [4]

O=C(O)C(=O)O.Oc1ccc(Br)cc1CN1CCN(Cc2cccc(F)c2)CC1
100%: Onchocerca lienalis [1] | Onchocerca lienalis [2] | Onchocerca lienalis [3] | Onchocerca lienalis [4]

CN(C)c1ccc(N2C(N)=NC(N)=NC2(C)C)cc1
100%: Onchocerca lienalis [1] | Onchocerca lienalis [2] | Onchocerca lienalis [3] | Onchocerca lienalis [4]

Oc1c(CN2CCN(c3ccccc3F)CC2)cc(Br)c2cccnc12
66.66%: Onchocerca lienalis [4]
100%: Onchocerca lienalis [1] | Onchocerca lienalis [2] | Onchocerca lienalis [3]

CCCCc1c(C)nc2c(OC)cccc2c1O
100%: Onchocerca lienalis [1] | Onchocerca lienalis [2] | Onchocerca lienalis [3] | Onchocerca lienalis [4]

Clc1ccc2c(N3CCCC3)ccnc2c1
100%: Onchocerca lienalis [1] | Onchocerca lienalis [2] | Onchocerca lienalis [3] | Onchocerca lienalis [4]

CCOC(=O)C1CCN(C(=O)CN2C(=O)c3ccccc3C2c2c[nH]c3ccccc23)CC1 (configuration not stated)
100%: Onchocerca lienalis [1] | Onchocerca lienalis [2] | Onchocerca lienalis [3] | Onchocerca lienalis [4]

CCOc1ccc(CCNC(=O)c2cccs2)cc1OCC
100%: Onchocerca lienalis [1] | Onchocerca lienalis [2] | Onchocerca lienalis [3] | Onchocerca lienalis [4]

Cc1c(C)n(CC(O)CNC2CCCCC2C)c2ccccc12 (configuration not stated)
100%: Onchocerca lienalis [1] | Onchocerca lienalis [2] | Onchocerca lienalis [3] | Onchocerca lienalis [4]

CCCCN(CCCC)S(=O)(=O)c1ccc(NC(=O)c2ccco2)cc1
100%: Onchocerca lienalis [1] | Onchocerca lienalis [2] | Onchocerca lienalis [3] | Onchocerca lienalis [4]
